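Five compound concentrations were applied to cells in 96-well plates for 48 hours; endpoints were derived by simple linear interpolation of the resulting dose-response curve. GI50 = concentration required for 50% inhibition of growth. At the TGI there is no net growth.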
What was measured:
Assay in all cases: inhibition of tumour cell growth, NCI panel, 48 h
786-0 renal = system: 786-0 renal
A498 renal = system: A498 renal
A549 NSCLC = system: A549 NSCLC
ACHN renal = system: ACHN renal
BT-549 breast = system: BT-549 breast
CAKI-1 renal = system: CAKI-1 renal
CCRF-CEM leukemia = system: CCRF-CEM leukemia
COLO 205 colon = system: COLO 205 colon
DU-145 prostate = system: DU-145 prostate
EKVX NSCLC = system: EKVX NSCLC
HCT-116 colon = system: HCT-116 colon
HCT-15 colon = system: HCT-15 colon
HL-60(TB) leukemia = system: HL-60(TB) leukemia
HOP-62 NSCLC = system: HOP-62 NSCLC
HOP-92 NSCLC = system: HOP-92 NSCLC
HS 578T breast = system: HS 578T breast
HT29 colon = system: HT29 colon
IGROV1 ovarian = system: IGROV1 ovarian
K-562 leukemia = system: K-562 leukemia
KM12 colon = system: KM12 colon
LOX IMVI melanoma = system: LOX IMVI melanoma
M14 melanoma = system: M14 melanoma
MALME-3M melanoma = system: MALME-3M melanoma
MCF7 breast = system: MCF7 breast
MDA-MB-435 = system: MDA-MB-435
MOLT-4 leukemia = system: MOLT-4 leukemia
NCI-H23 lung = system: NCI-H23 lung
NCI-H460 lung = system: NCI-H460 lung
NCI-H522 lung = system: NCI-H522 lung
NCI/ADR-RES ovarian = system: NCI/ADR-RES ovarian
OVCAR-3 ovarian = system: OVCAR-3 ovarian
OVCAR-4 ovarian = system: OVCAR-4 ovarian
OVCAR-5 ovarian = system: OVCAR-5 ovarian
OVCAR-8 ovarian = system: OVCAR-8 ovarian
PC-3 prostate = system: PC-3 prostate
RPMI-8226 leukemia = system: RPMI-8226 leukemia
RXF 393 renal = system: RXF 393 renal
SF-268 CNS = system: SF-268 CNS
SF-295 CNS = system: SF-295 CNS
SF-539 CNS = system: SF-539 CNS
SK-MEL-2 melanoma = system: SK-MEL-2 melanoma
SK-MEL-28 melanoma = system: SK-MEL-28 melanoma
SK-MEL-5 melanoma = system: SK-MEL-5 melanoma
SK-OV-3 ovarian = system: SK-OV-3 ovarian
SN12C renal = system: SN12C renal
SNB-19 CNS = system: SNB-19 CNS
SNB-75 CNS = system: SNB-75 CNS
SW-620 colon = system: SW-620 colon
T-47D breast = system: T-47D breast
TK-10 renal = system: TK-10 renal
U251 CNS = system: U251 CNS
UACC-257 melanoma = system: UACC-257 melanoma
UACC-62 melanoma = system: UACC-62 melanoma
UO-31 renal = system: UO-31 renal
HCC-2998 colon = system: HCC-2998 colon
MDA-MB-231 breast = system: MDA-MB-231 breast
NCI-H226 lung = system: NCI-H226 lung

COC1/C=C(C)/C=C/C(C)/C=C/C(=O)OC(/C(C)=C/C=C(\C)CNC(=O)[C@H](CO)NC=O)C(C)/C=C/C=C/C(OC)CC/C=C(C)/C=C/C1 (some centres undefined)
TGI (786-0 renal): > 1 µM
TGI (A498 renal): > 1 µM
TGI (A549 NSCLC): > 1 µM
TGI (ACHN renal): > 1 µM
TGI (BT-549 breast): > 1 µM
TGI (CAKI-1 renal): > 0.397 µM
TGI (CCRF-CEM leukemia): > 1 µM
GI50 (COLO 205 colon): 0.0331 µM
TGI (COLO 205 colon): > 1 µM
TGI (DU-145 prostate): > 1 µM
TGI (EKVX NSCLC): > 1 µM
TGI (HCT-116 colon): > 1 µM
TGI (HCT-15 colon): > 1 µM
TGI (HL-60(TB) leukemia): 0.0957 µM
TGI (HOP-62 NSCLC): 0.109 µM
TGI (HOP-92 NSCLC): > 0.267 µM
TGI (HS 578T breast): > 1 µM
TGI (HT29 colon): > 1 µM
TGI (IGROV1 ovarian): > 1 µM
TGI (K-562 leukemia): 0.0472 µM
TGI (KM12 colon): > 1 µM
TGI (LOX IMVI melanoma): > 1 µM
TGI (M14 melanoma): 0.0356 µM
TGI (MALME-3M melanoma): 0.385 µM
TGI (MCF7 breast): > 1 µM
TGI (MDA-MB-435): 0.047 µM
TGI (MOLT-4 leukemia): > 0.611 µM
TGI (NCI-H23 lung): > 0.859 µM
TGI (NCI-H460 lung): > 1 µM
GI50 (NCI-H522 lung): 0.0362 µM
TGI (NCI-H522 lung): > 1 µM
TGI (NCI/ADR-RES ovarian): > 0.724 µM
TGI (OVCAR-3 ovarian): > 0.461 µM
TGI (OVCAR-4 ovarian): > 1 µM
TGI (OVCAR-5 ovarian): > 1 µM
TGI (OVCAR-8 ovarian): > 1 µM
TGI (PC-3 prostate): > 0.352 µM
TGI (RPMI-8226 leukemia): 0.0769 µM
TGI (RXF 393 renal): > 1 µM
TGI (SF-268 CNS): > 1 µM
TGI (SF-295 CNS): 0.0534 µM
TGI (SF-539 CNS): > 0.257 µM
TGI (SK-MEL-2 melanoma): > 0.246 µM
TGI (SK-MEL-28 melanoma): > 1 µM
TGI (SK-MEL-5 melanoma): 0.0654 µM
TGI (SK-OV-3 ovarian): > 1 µM
TGI (SN12C renal): > 1 µM
TGI (SNB-19 CNS): > 1 µM
TGI (SNB-75 CNS): > 1 µM
TGI (SW-620 colon): > 1 µM
TGI (T-47D breast): > 1 µM
TGI (TK-10 renal): > 1 µM
TGI (U251 CNS): > 1 µM
TGI (UACC-257 melanoma): > 0.206 µM
TGI (UACC-62 melanoma): 0.0553 µM
TGI (UO-31 renal): > 0.735 µM

C#CC[C@@H]1C[C@]2(C)[C@H]3CC[C@@H]4[C@H]5C(C(=C)C)CC[C@]5(C(=O)NCCCN5CCN(CCCN)CC5)CC[C@@]4(C)[C@]3(C)CC[C@H]2C(C)(C)[C@H]1OC(C)=O (some centres undefined)
GI50 (OVCAR-5 ovarian): 1.58 µM
TGI (OVCAR-5 ovarian): 2.95 µM

O=C(CSCC(=O)N/N=C/c1ccc2c(c1)OCO2)N/N=C/c1ccc2c(c1)OCO2
TGI (786-0 renal): > 100 µM
TGI (A498 renal): > 100 µM
TGI (A549 NSCLC): > 100 µM
TGI (ACHN renal): > 100 µM
TGI (BT-549 breast): > 100 µM
TGI (CAKI-1 renal): > 100 µM
TGI (CCRF-CEM leukemia): > 100 µM
TGI (DU-145 prostate): > 100 µM
TGI (EKVX NSCLC): > 100 µM
TGI (HCC-2998 colon): > 100 µM
TGI (HCT-116 colon): > 100 µM
TGI (HCT-15 colon): > 100 µM
TGI (HL-60(TB) leukemia): > 100 µM
TGI (HOP-62 NSCLC): > 100 µM
TGI (HOP-92 NSCLC): > 100 µM
TGI (HS 578T breast): > 100 µM
TGI (HT29 colon): > 100 µM
TGI (IGROV1 ovarian): > 100 µM
TGI (K-562 leukemia): > 100 µM
TGI (KM12 colon): > 100 µM
TGI (LOX IMVI melanoma): > 100 µM
TGI (M14 melanoma): > 100 µM
TGI (MALME-3M melanoma): > 100 µM
TGI (MCF7 breast): > 100 µM
TGI (MDA-MB-231 breast): > 100 µM
TGI (MDA-MB-435): > 100 µM
TGI (MOLT-4 leukemia): 56.8 µM
TGI (NCI-H226 lung): > 100 µM
TGI (NCI-H23 lung): > 100 µM
TGI (NCI-H460 lung): > 100 µM
TGI (NCI-H522 lung): > 100 µM
TGI (NCI/ADR-RES ovarian): > 100 µM
TGI (OVCAR-3 ovarian): > 100 µM
TGI (OVCAR-4 ovarian): > 100 µM
TGI (OVCAR-5 ovarian): > 100 µM
TGI (OVCAR-8 ovarian): > 100 µM
TGI (PC-3 prostate): > 100 µM
TGI (RPMI-8226 leukemia): > 100 µM
TGI (RXF 393 renal): > 100 µM
TGI (SF-268 CNS): > 100 µM
TGI (SF-295 CNS): > 100 µM
TGI (SF-539 CNS): > 100 µM
TGI (SK-MEL-2 melanoma): > 100 µM
TGI (SK-MEL-28 melanoma): > 100 µM
TGI (SK-MEL-5 melanoma): > 100 µM
TGI (SK-OV-3 ovarian): > 100 µM
TGI (SN12C renal): > 100 µM
TGI (SNB-19 CNS): > 100 µM
TGI (SNB-75 CNS): > 100 µM
TGI (SW-620 colon): > 100 µM
TGI (T-47D breast): > 100 µM
TGI (TK-10 renal): > 100 µM
TGI (U251 CNS): > 100 µM
TGI (UACC-257 melanoma): > 100 µM
TGI (UACC-62 melanoma): > 100 µM
TGI (UO-31 renal): > 100 µM
